Reference: PubChem BioAssay (NCI)
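These data come from cells grown in 96-well plates and exposed to compound for 48 hours at five concentrations. The concentration for full growth arrest is given as TGI.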

Columns and labels:
Experiment in all cases: NCI tumour cell line growth inhibition, 48 h
[1] = test system: SF-539 CNS
[2] = test system: SR leukemia
[3] = test system: SF-268 CNS
[4] = test system: MDA-MB-435
[5] = test system: 786-0 renal
[6] = test system: U251 CNS
[7] = test system: MDA-MB-231 breast
[8] = test system: OVCAR-8 ovarian
[9] = test system: SK-MEL-5 melanoma
[10] = test system: MOLT-4 leukemia
[11] = test system: OVCAR-4 ovarian
[12] = test system: SK-OV-3 ovarian
[13] = test system: IGROV1 ovarian
[14] = test system: EKVX NSCLC
[15] = test system: HCC-2998 colon
[16] = test system: SNB-19 CNS
[17] = test system: CAKI-1 renal
[18] = test system: SF-295 CNS
[19] = test system: NCI-H460 lung
[20] = test system: NCI/ADR-RES ovarian
[21] = test system: NCI-H522 lung
[22] = test system: MCF7 breast
[23] = test system: M14 melanoma
[24] = test system: MALME-3M melanoma
[25] = test system: LOX IMVI melanoma
[26] = test system: CCRF-CEM leukemia
[27] = test system: ACHN renal
[28] = test system: A549 NSCLC
[29] = test system: PC-3 prostate
[30] = test system: UACC-62 melanoma
[31] = test system: HOP-92 NSCLC
[32] = test system: SN12C renal
[33] = test system: RXF 393 renal
[34] = test system: DU-145 prostate
[35] = test system: TK-10 renal
[36] = test system: OVCAR-5 ovarian
[37] = test system: HCT-116 colon
[38] = test system: HL-60(TB) leukemia
[39] = test system: SK-MEL-2 melanoma
[40] = test system: SK-MEL-28 melanoma
[41] = test system: BT-549 breast
[42] = test system: SW-620 colon
[43] = test system: NCI-H226 lung
[44] = test system: UO-31 renal
[45] = test system: HT29 colon
[46] = test system: RPMI-8226 leukemia
[47] = test system: KM12 colon
[48] = test system: HCT-15 colon
[49] = test system: T-47D breast
[50] = test system: MDA-N
[51] = test system: UACC-257 melanoma
[52] = test system: NCI-H23 lung
[53] = test system: OVCAR-3 ovarian
[54] = test system: HOP-62 NSCLC
[55] = test system: HS 578T breast
[56] = test system: K-562 leukemia
[57] = test system: COLO 205 colon
[58] = test system: SNB-75 CNS
[59] = test system: A498 renal

## Nc1nc(Cl)c(N)c(NCC2(CO)CCC2)n1
[1]
  TGI: > 100 µM
[2]
  TGI: > 100 µM
[3]
  TGI: > 100 µM
[4]
  TGI: > 100 µM
[5]
  TGI: > 100 µM
[6]
  TGI: > 100 µM
[7]
  TGI: > 100 µM
[8]
  TGI: > 100 µM
[9]
  TGI: > 100 µM
[10]
  TGI: > 100 µM
[11]
  TGI: > 100 µM
[12]
  TGI: > 100 µM
[13]
  TGI: > 100 µM
[14]
  TGI: > 100 µM
[15]
  TGI: > 100 µM
[16]
  TGI: > 100 µM
[17]
  TGI: > 100 µM
[18]
  TGI: > 100 µM
[19]
  TGI: > 100 µM
[20]
  TGI: > 100 µM
[21]
  TGI: > 100 µM
[22]
  TGI: > 100 µM
[23]
  TGI: > 100 µM
[24]
  TGI: > 100 µM
[25]
  TGI: > 100 µM
[26]
  TGI: > 100 µM
[27]
  TGI: > 100 µM
[28]
  TGI: > 100 µM
[29]
  TGI: > 100 µM
[30]
  TGI: > 100 µM
[31]
  TGI: > 100 µM
[32]
  TGI: > 100 µM
[33]
  TGI: > 100 µM
[34]
  TGI: > 100 µM
[35]
  TGI: > 100 µM
[36]
  TGI: > 100 µM
[37]
  TGI: > 100 µM
[38]
  TGI: > 100 µM
[39]
  TGI: > 100 µM
[40]
  TGI: > 100 µM
[41]
  TGI: > 100 µM
[42]
  TGI: > 100 µM
[43]
  TGI: > 100 µM
[44]
  TGI: > 100 µM
[45]
  TGI: > 100 µM
[46]
  TGI: > 100 µM
[47]
  TGI: > 100 µM
[48]
  TGI: > 100 µM
[49]
  TGI: > 100 µM
[50]
  TGI: > 100 µM
[51]
  TGI: > 100 µM
[52]
  TGI: > 100 µM
[53]
  TGI: > 100 µM
[54]
  TGI: > 100 µM
[55]
  TGI: > 100 µM
[56]
  TGI: > 100 µM
[57]
  TGI: > 100 µM
[58]
  TGI: > 100 µM
[59]
  TGI: > 100 µM

## O=c1[nH]c(C23CC4CC(CC(C4)C2)C3)cc2c1c(=O)oc1ccccc12
[1]
  TGI: 17.4 µM
[2]
  TGI: 9.31 µM
[3]
  TGI: 9.52 µM
[4]
  TGI: > 60.5 µM
[5]
  TGI: 3.1 µM
[6]
  TGI: 7.55 µM
[7]
  TGI: 10.8 µM
[8]
  TGI: 15 µM
[9]
  TGI: 18.3 µM
[10]
  TGI: > 100 µM
[11]
  TGI: 14 µM
[12]
  TGI: 11 µM
[13]
  TGI: 13 µM
[14]
  TGI: 3.99 µM
[15]
  TGI: 19.6 µM
[16]
  TGI: 17.7 µM
[17]
  TGI: 7.03 µM
[18]
  TGI: 12.9 µM
[19]
  TGI: 11.6 µM
[20]
  TGI: 18.9 µM
[21]
  TGI: 11.1 µM
[22]
  TGI: > 41 µM
[23]
  TGI: 39.6 µM
[24]
  TGI: 13.7 µM
[25]
  TGI: 11.6 µM
[26]
  TGI: 42.7 µM
[27]
  TGI: 10.6 µM
[28]
  TGI: 9.71 µM
[29]
  TGI: 10.5 µM
[30]
  TGI: > 49.8 µM
[31]
  TGI: 6.48 µM
[32]
  TGI: 38.5 µM
[33]
  TGI: 7.71 µM
[34]
  TGI: 22 µM
[35]
  TGI: 12.2 µM
[36]
  TGI: 22.8 µM
[37]
  TGI: 12.4 µM
[38]
  TGI: > 100 µM
[39]
  TGI: 38.7 µM
[40]
  TGI: 20.6 µM
[41]
  TGI: 38.2 µM
[42]
  TGI: > 51.8 µM
[43]
  TGI: 5.75 µM
[44]
  TGI: 4.23 µM
[45]
  TGI: 15.7 µM
[46]
  TGI: 15.1 µM
[47]
  TGI: > 96 µM
[48]
  TGI: 81.3 µM
[49]
  TGI: 44.6 µM
[50]
  TGI: > 59.3 µM
[51]
  TGI: > 76.2 µM
[52]
  TGI: 23 µM
[53]
  TGI: 17.5 µM
[54]
  TGI: 9.56 µM
[55]
  TGI: > 20.3 µM
[56]
  TGI: > 35.8 µM
[57]
  TGI: 46.9 µM
[58]
  TGI: 9.52 µM
[59]
  TGI: 5.11 µM

## O=C1c2ccccc2C(=O)N1CCCSc1ccccc1
[1]
  TGI: > 100 µM
[2]
  TGI: > 100 µM
[3]
  TGI: > 100 µM
[4]
  TGI: > 100 µM
[5]
  TGI: > 100 µM
[6]
  TGI: > 100 µM
[7]
  TGI: > 100 µM
[8]
  TGI: > 100 µM
[9]
  TGI: > 100 µM
[10]
  TGI: > 100 µM
[11]
  TGI: > 100 µM
[12]
  TGI: > 100 µM
[13]
  TGI: > 100 µM
[14]
  TGI: > 100 µM
[15]
  TGI: > 100 µM
[16]
  TGI: > 100 µM
[17]
  TGI: > 100 µM
[18]
  TGI: > 100 µM
[19]
  TGI: > 100 µM
[20]
  TGI: > 100 µM
[21]
  TGI: > 100 µM
[22]
  TGI: > 100 µM
[23]
  TGI: > 100 µM
[24]
  TGI: > 100 µM
[25]
  TGI: > 100 µM
[26]
  TGI: > 100 µM
[27]
  TGI: > 100 µM
[28]
  TGI: > 100 µM
[29]
  TGI: > 100 µM
[30]
  TGI: > 100 µM
[31]
  TGI: > 100 µM
[32]
  TGI: > 100 µM
[33]
  TGI: > 100 µM
[34]
  TGI: > 100 µM
[35]
  TGI: > 100 µM
[36]
  TGI: > 100 µM
[37]
  TGI: > 100 µM
[38]
  TGI: > 100 µM
[39]
  TGI: > 100 µM
[40]
  TGI: > 100 µM
[41]
  TGI: > 100 µM
[42]
  TGI: > 100 µM
[43]
  TGI: > 100 µM
[44]
  TGI: > 100 µM
[45]
  TGI: > 100 µM
[46]
  TGI: > 100 µM
[47]
  TGI: > 100 µM
[48]
  TGI: > 100 µM
[49]
  TGI: > 100 µM
[50]
  TGI: > 100 µM
[51]
  TGI: > 100 µM
[52]
  TGI: > 100 µM
[53]
  TGI: > 100 µM
[54]
  TGI: > 100 µM
[55]
  TGI: > 100 µM
[56]
  TGI: > 100 µM
[57]
  TGI: > 100 µM
[58]
  TGI: > 100 µM
[59]
  TGI: > 100 µM
